# From patent publication US20240400991A1, “IMMUNE CELLS WITH REDUCED ANDROGEN RECEPTOR (AR) LEVEL, AND METHODS OF THEIR USE TO ENHANCE ANTI-CANCER THERAPY” (Oregon Health & Science University, priority 2021, published 2024)
# Experiments:
# [1] = test system: OTI T cells in the tumor; experiment: Adoptive T cell therapy model: OT1 CD8 T cells in MCA-OVA tumor bearing RIP-mOVA animals
# [2] = test system: CD8 tumor infiltrating cells; experiment: Flow cytometry / intracellular cytokine staining of tumor infiltrating CD8 T cells in PPSM tumor bearing animals; type: in vivo, mouse; details: FIGS. 8I-8L
# Procedure: (subcutaneous) injection once every 14 days.
# Flow cytometry. Cells were incubated for 20 min on ice with e506 fixable viability dye and the following antibodies: […] (H57-597), CD4 (RM4-5), CD8 (53-6.7), CD44 (IM7), PD-1 (J43) and Thy1.1 (HIS51). Intracellular proteins Ki67 (SolA15), IFNγ (XMG1.2), TNFα (MP6-CT22), Nur77 (12.14) and Granzyme B (NGZB) were detected using the Fixation/Permeabilization Solution kit from BD Biosciences. All antibodies and viability dyes were purchased from eBioscience, Biolegend, or BD Biosciences. Data were collected with a Fortessa™ flow cytometer (BD Biosciences) and analyzed using FlowJo software (Tree Star). Unless noted otherwise in the figure legend, cells were gated through live/TCRβ+/CD8+ gates for analysis.
# In vitro activation and intracellular cytokine staining.
structure (smiles),measurement,setting,value
"CNC(=O)c1ccc(N2C(=S)N(c3ccc(C#N)c(C(F)(F)F)c3)C(=O)C2(C)C)cc1F [enzalutamide, 4-(3-(4-cyano-3-(trifluoromethyl)phenyl)-5,5-dimethyl-4-oxo-2-thioxoimidazolidin-I-yl)-2-fluoro-N-methyl benzamide]",cytokine production in tumor specific T cells,[1]; FIGS. 10A-10C legend,increased cytokine production
same,IFNγ production of tumor-antigen specific CD8 T cells,"[1]; female mice, FIG. 10C",increased
same,IFNγ production of tumor-antigen specific CD8 T cells,"[1]; male mice, chemically castrated (degarelix), FIG. 10B",increased
same,polyfunctionality of tumor-associated CD8 T cells,[2],insufficient to improve the polyfunctionality
